According to patent publication US20230286978A1, “INDAZOLE DERIVATIVES AS INHIBITORS OF SARM1” (Disarm Therapeutics, Inc., priority 2020, published 2023):

Target: SARM1 (Homo sapiens (Human), UniProt Q6SZW1)
Test: ARM-SAM-TIR SARM1 IC50 assay (NADase activity, RapidFire mass spectrometry)
Type: biochemical
Settings: ARM-SAM-TIR lysate 5 µg/mL, 2 h pre-incubation with compound, 5 µM NAD+, 2 hr at room temperature
From the text: This Example describes an assay of ARM-SAM-TIR NADase activity and use of this assay to measure the efficacy of compounds of Formula I/II to block SARM1 mediated NAD+ cleavage. This assay was optimized in such a way as to characterize the efficacy of the compounds in Formula I/IIto inhibit SARM1 activity and to calculate an IC50 value for each compound. This assay makes use of […], which encompasses the ARM, SAM and TIR domains. […] The next day, the cells were transfected with 15 μg ARM-SAM-TIR expression plasmid, SEQ ID NO: 1. The cultures were supplemented with 1 mM NR at time of transfection to minimize toxicity from ARM-SAM-TIR overexpression. Forty-eight hours after transfection, cells were harvested, pelleted by centrifugation at 1,000 rpm (Sorvall ST 16R centrifuge, Thermo Fisher), and washed once with cold PBS (0.01 M phosphate buffered saline NaCl 0.138 M; KCl 0.0027 M; pH 7.4). The cells were resuspended in PBS with protease inhibitors (cOmpleteTM protease inhibitor cocktail, Roche product # 11873580001) and cell lysates were prepared by sonication (Branson Sonifer 450, output = 3, 20 episodes of stroke). The lysates were centrifuged (12,000×g for 10 min at 4° C.) to remove cell debris and the supernatants (containing ARM-SAM-TIR protein) were stored at -80° C. for later use in the in vitro ARM-SAM-TIR NADase assay (see below). Protein concentration was determined by the Bicinchoninic (BCA) method and used to normalize lysate concentrations. The enzymatic assay was performed in a 384-well polypropylene plate in Dulbecco's PBS buffer in a final assay volume of 20 μL. […] The reaction was initiated by addition of 5 μM final assay concentration of NAD+ as substrate. After a 2 hr room temperature incubation, the reaction was terminated with 40 μL of stop solution of 7.5% trichloroactetic acid in acetonitrile. The NAD+ and ADPR concentrations were analyzed by a RapidFire High Throughput Mass Spectrometry System (Agilent Technologies, Santa Clara, CA) using an API4000 triple quadrupole mass spectrometer (AB Sciex Framingham, MA).

Sequence of SARM1 (Q6SZW1 other isoform, or with tags, fused parts or gaps): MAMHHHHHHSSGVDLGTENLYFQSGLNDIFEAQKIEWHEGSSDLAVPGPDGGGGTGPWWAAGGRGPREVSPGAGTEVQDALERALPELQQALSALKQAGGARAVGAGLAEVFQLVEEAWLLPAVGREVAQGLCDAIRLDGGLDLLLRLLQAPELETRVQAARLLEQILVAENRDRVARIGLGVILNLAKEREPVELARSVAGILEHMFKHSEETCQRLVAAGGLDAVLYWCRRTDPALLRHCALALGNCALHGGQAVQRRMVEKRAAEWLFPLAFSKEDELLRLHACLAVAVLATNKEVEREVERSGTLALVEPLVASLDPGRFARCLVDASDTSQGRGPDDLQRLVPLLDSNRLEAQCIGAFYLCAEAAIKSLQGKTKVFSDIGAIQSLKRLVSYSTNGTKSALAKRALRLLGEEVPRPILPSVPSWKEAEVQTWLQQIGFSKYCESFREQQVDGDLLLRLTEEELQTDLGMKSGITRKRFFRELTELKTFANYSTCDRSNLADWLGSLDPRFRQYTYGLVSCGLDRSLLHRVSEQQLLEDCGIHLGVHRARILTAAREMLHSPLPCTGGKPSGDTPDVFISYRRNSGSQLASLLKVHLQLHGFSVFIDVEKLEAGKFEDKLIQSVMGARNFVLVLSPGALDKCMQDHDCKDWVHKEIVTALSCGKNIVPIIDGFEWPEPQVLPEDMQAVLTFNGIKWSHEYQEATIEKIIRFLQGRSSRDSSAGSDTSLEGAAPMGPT

SMILES | IC50
O=C(NCc1ccc(Cl)cc1)c1cccc2c(-c3ccncc3)n[nH]c12 [Example 1] | < 100 nM
O=C(NCc1ccccc1)c1cccc2c(-c3ccncc3)n[nH]c12 [Example 2] | 100 to 1000 nM
O=C(NCc1ccc(Cl)cc1)c1cncc2c(-c3ccncc3)n[nH]c12 [Example 4] | < 100 nM
O=C(NCc1ccc(Cl)cc1)c1ccnc2c(-c3ccncc3)n[nH]c12 [Example 5] | < 100 nM
O=C(NCc1ccccc1)c1cncc2c(-c3ccncc3)n[nH]c12 [Example 6] | 100 to 1000 nM
O=C(NCc1ccccc1)c1ccnc2c(-c3ccncc3)n[nH]c12 [Example 7] | 1010 to 5000 nM
C[C@H](NC(=O)c1cccc2c(-c3ccncc3)n[nH]c12)c1ccc(Cl)cc1 [Example 8] | > 10000 nM
O=C(NCc1ccc(Cl)nc1)c1cccc2c(-c3ccncc3)n[nH]c12 [Example 9] | 100 to 1000 nM
O=C(NCc1ccc(Cl)cc1)c1cccc2c(-c3ccncc3F)n[nH]c12 [Example 10] | < 100 nM
O=C(NCc1ccc(Cl)c(F)c1)c1cccc2c(-c3ccncc3F)n[nH]c12 [Example 12] | < 100 nM
O=C(NCc1ccc(Cl)s1)c1cccc2c(-c3ccncc3F)n[nH]c12 [Example 13] | 100 to 1000 nM
